The term IC50 denotes the concentration that gives 50% inhibition. Low readings indicate higher potency, high ones lower potency.

Entries after “also recorded” stand apart in the source; their conditions may differ. Where only a bound is given, the exact number is not on record here.

The source of these data is US9682060B2, “Small molecules that induce intrinsic pathway apoptosis” (The Board of Trustees of the University of Illinois, priority 2015, dated 2017).

The test system of one test is Jurkat cells. Briefly: AV/PI assay in Jurkat cell lines (WT, caspase-8 deletion, FADD deletion, Bcl-2 upregulation). In kind it is cell-based, Human. Conditions: 10 μM, 2 hours.
A further test concerns U-937 cells. Kind of test: Immunoblotting of caspase activation and PARP-1 cleavage. The format is cell-based, Human. Particulars: 10 μM. How it is done:
U-937 cells (3×10^6 cells in 2 mL RPMI) or SKW 6.4 cells (5×10^6 cells in 2 mL RPMI) were treated with compound (1% final DMSO v/v) for the appropriate period of time. After centrifugation and washing with PBS, cells were lysed with RIPA lysis buffer containing protease cocktail inhibitor III (Calbiochem) and cell debris removed by centrifugation (16000×g 5 min). The lysate concentrations were normalized after determination of protein concentration by the Bradford assay and whole cell lysate (40-60 μg) was resolved by 4-20% gradient SDS-PAGE gel electrophoresis at 120 V for 70 min after which proteins were transferred onto PVDF membranes (60 V for 2 hours) and blocked in 5% BSA or fat-free milk in TBST (as per primary antibody manufacturer's instructions) overnight at 4° C. The membranes were blotted for molecules of interest with primary antibody (1:1000 in 5% BSA or milk in TBST) overnight at 4° C. The bound primary antibodies were detected using appropriate secondary HRP conjugated antibodies (1:5000 in TBST) for 1 hour at room temperature and visualized by ECL autoradiography or with an Image Quant LAS 4010. The membranes were stripped in acidic methanol, blocked and re-probed as necessary.
Induction of Necroptosis and Observation of Phospho-MLKL by Immunoblot.
[…]. Cells were then treated with TNFα (10 ng/ml) in the presence of cycloheximide (20 μg/ml) for (1% final DMSO v/v) for the appropriate period of time. After centrifugation and washing with PBS, cells were lysed with RIPA lysis buffer containing protease cocktail inhibitor III (Calbiochem) and Phosphatase Inhibitor IV (BioVision). Samples were further processed for immunblot analysis as described above.
A general note: In western blotting, separated proteins are transferred to a membrane and probed.

Test [1] has as its system isolated mitochondria (U-937 cells). Briefly: In vitro cytochrome c release from isolated mitochondria. Conditions: respiring and non-respiring conditions, 30 min, Western blot. In kind it is biochemical, Human. The method, then:
In Vitro Cytochrome c Release from Isolated Mitochondria.
U-937 cells (120×10^6) were washed twice in PBS and resuspended in 800 μL ice-cold lysis buffer (50 mM HEPES, 5 mM DTT, 5 mM PMSF, 25 mM MgCl2, protease cocktail inhibitor, pH 7.5) and the cells were passed through a 26 gauge needle 26 times using a 1 mL syringe until >95% cells were lysed as determined by trypan blue. Isolation buffer (0.25 M sucrose in lysis buffer pH 7.5) was added to the lysed cells (2.4 mL) and mixed by inversion. Debris was removed by centrifugation (500×g. 10 min at 4° C.) and the mitochondria in the supernatant were pelleted by centrifugation (10000×g, 5 min at 4° C.). The mitochondrial pellet was resuspended in washing buffer (2 mL of 50 mM HEPES, 250 mM KCl, 25 mM EDTA, pH 7.5) and incubated on ice for 2 min and centrifuged (12500×g, 5 min). The mitochondrial pellet was resuspended in either non-respiration (300 μL of 50 mM HEPES, 5 mM DTT, 5 mM PMSF, 25 mM MgCl2, protease inhibitor, 250 mM KCl, 25 mM EDTA, pH 7.5) or respiration buffer (300 μL of 50 mM HEPES, […], 5 mM ATP, 0.4 mM ADP, 25 mM sodium succinate, 10 mM potassium phosphate dibasic, pH 7.5). […]

The next test relates to Hs888Lu. Briefly: Raptinal toxicity, 24 hour IC50 (sulforhodamine B assay for adherent cells). The format is cell-based. Conditions: Hs888Lu (Human lung fibroblast); 24 hour incubation; mean ± SD. The method, then:
(§1) Sulforhodamine B Assay for Adherent Cells.
(§2) Serial dilutions of compound in 100% DMSO were added in triplicate (2 μL to each well) to empty wells of a 96-well plate. Adherent cells (3T3, Hs888Lu, MCF-7, HeLa, WT-MEF, 4T1, B16-F10, SK-MEL-5, MIA PaCa2, BT-549, MDA-MB-436, 143B, HOS, H460, H1993) cells were added to each well (5×10^3 cells in 198 μL of RPMI 1640, DMEM or EMEM media). The plates were incubated for 24 hours. The media was removed from the plate and ice-cold trichloroacetic acid (100 μL of 10% w/v trichloroacetic acid) was added to the plates which were then incubated at 4° C. overnight to fix the cells. The trichloroacetic acid was removed and the wells washed with 200 μL of de-ionized water 5 times. Sulforhodamine B (200 μL of 0.04% sodium salt dissolved in 1% acetic acid) was added to each well and the plates incubated at room temperature for 30 min. Excess sulforhodamine B was removed by washing the plates 5 times with 1% acetic acid. The bound dye was released by the addition of unbuffered Tris-base (200 μL of 10 mM solution) and after a 30 min incubation at room temperature the absorbance at 510 nm was measured (Molecular Devices SpectraMax Plus 384 plate reader). The mean IC50 values and standard deviations were determined from three independent experiments.
On the technique in general: The SRB assay estimates cell density from bound dye.

Another test deals with HOS. The test is described as above. The format is cell-based. Particulars: HOS (Human Osteosarcoma); 24 hour incubation; mean ± SD. The method, then:
as §1, §2

For another test, the system named is B16-F10. Described as above. The format is cell-based. Particulars: B16-F10 (Mouse Melanoma); 24 hour incubation; mean ± SD. How it is done: as §1, §2
The subject of a further test is 4T1. The description is as above. The format is cell-based. Particulars: 4T1 (Mouse Breast Cancer); 24 hour incubation; mean ± SD. The method, then: as §1, §2
In the next test the test system is 143B. The test is described as above. Particulars: 143B (Human Osteosarcoma); 24 hour incubation; mean ± SD. The format is cell-based. How it is done:
as §1, §2

Test [2] concerns various cancer and non-cancerous cell lines. Briefly: 24 hour IC50 across various cancer and non-cancerous cell lines. The format is cell-based. Particulars: various cancer and non-cancerous cell lines (Table 1, FIG. 4D). How it is done:
MTS Assay for Suspension Cells.
Serial dilutions of compound in 100% DMSO were added in triplicate (2 μL to each well) to empty wells of a 96-well plate. Suspension cells (HL-60, U-937, SKW 6.4, Jurkat W T, Jurkat CASP8^−/−, Jurkat FADD^−/−, Jurkat Bcl-2) cells in RPMI 1640 media were added to 96-well plates (198 μL containing 4×10^4 cells) and the cells incubated for 24 hours.
as §1
as §2, with “The trichloroacetic acid was removed and the wells washed with 200 μL of de-ionized water 5 times. Sulforhodamine B (200 μL of 0.04% sodium salt dissolved in 1% acetic acid) was added to each well and the plates incubated at room temperature for 30 min. Excess sulforhodamine B was removed by washing the plates 5 times with 1% acetic acid.” left out

On to `O=CC1(C2(C=O)c3ccccc3-c3ccccc32)c2ccccc2-c2ccccc21` [Raptinal, [9,9′]bifluorenyl-9,9′-dicarbaldehyde], for which the “sensitivity of Jurkat Bcl-2 overexpressing versus wild type cells” value in the test on Jurkat cells is recorded as “less susceptible; also recorded: partial resistance”. In the test with Jurkat cells, the “sensitivity of Jurkat caspase-8−/− versus wild type cells” value is reported as “equally susceptible; also recorded: equally as sensitive”. Also, the “time of activation of initiator caspase-9” value with U-937 cells was 20 min. The “time to complete cleavage of procaspase-9, procaspase-8 and procaspase-3” value in the test on U-937 cells is at most 45 min. In the test with U-937 cells (Western blot), the “cleavage of procaspase-1 (pyroptosis/pyronecrosis)” value is recorded as “neither”. For the same molecule, the “activation of procaspase-3 to caspase-3 (immunoblot)” value in the test on U-937 cells (one hour treatment) was “complete activation”. Moreover, in the test on U-937 cells (one hour, versus the other toxins), the “cleavage of PARP-1 (116 to 89 kDa form)” value was “Significantly more abundant cleavage”. Also, the “cytochrome c release from isolated mitochondria” value in test [1] is given as “does not induce cytochrome c release; also recorded: did not directly induce cytochrome c release”. The IC50 in the test with Hs888Lu is 1700 ± 100 nM; with HOS, 1000 ± 100 nM; with B16-F10, 1600 ± 200 nM; in the test on 4T1, 1000 ± 200 nM; in the test with 143B it was 1200 ± 500 nM; in test [2] it was 700 to 3400 nM.
